Data reported in patent publication US9757330B2, “Recipe for in-situ gel, and implant, drug delivery system formed thereby” (INDUSTRIAL TECHNOLOGY RESEARCH INSTITUTE, priority 2013, dated 2017).

Test: in-vitro release of risperidone from the in-situ hydrogel into PBS
Type: physicochemical
Conditions: agarose/urea in-situ hydrogel, Millicell insert in 7.5 ml PBS, HPLC, on the 28 day
Experimental: 800 μl of the stock solution was mixed with 200 μl of DI water containing dispersed risperidone (20 mg/ml). Then, 150 μl of the solution was added into 12-well Millicells and immersed the insert into 7.5 ml of PBS. The PBS solution was taken out at designated time point and replaced with fresh PBS. The concentration of risperidone was measured via HPLC. The release profile of risperidone from the in-situ hydrogel reached 86% on the 28 day (FIG. 2).

Cc1nc2n(c(=O)c1CCN1CCC(c3noc4cc(F)ccc34)CC1)CCCC2 [risperidone]
release of risperidone from the in-situ hydrogel: 86%
